US20080132539A1, “Hydroxamic Acid Derivative And Age Generation Inhibitor Containing The Derivative” (priority 2003, published 2008)

How the values were obtained:
Format in all cases: biochemical
[1] = tested on: Maillard reaction (lysozyme / fructose, dimer formation); assay: Maillard reaction-inhibiting effects (lysozyme dimer formation with fructose, SDS-PAGE densitometry); settings: 10 mg/mL lysozyme, 200 mM fructose, pH 7.4, 37° C., 4 days, dimer formation inhibition rate
Method: This Example examined Maillard reaction-inhibiting effects using, as test compounds, the compounds produced in the above-described Examples and the commercially available substances arginine hydroxamate (Compound No. 111), tyrosine hydroxamate (Compound No. 112), and tryptophan hydroxamate (Compound No. 113). More specifically, 10 mg/mL lysozyme, 200 mM fructose, and each of the above-described test compounds dissolved in a 0.4 mM sodium phosphate buffer (pH 7.4) so as to provide a concentrations of 0.1, 0.3, 1, or 3 mM were incubated at 37° C. for 4 days. After the incubation, the samples were subjected to SDS-PAGE, stained with Coomassie Brilliant Blue R-250, and quantitated for the formed dimmers using a densitometer. The Maillard reaction-inhibiting activity was defined as the dimmer formation inhibition rate of a test compound calculated on the basis that the amount of dimmer is 100% in the absence of the test compound, using, as blank, the amount of dimer in the absence of fructose and the test compound.

[2] = Methyl glyoxal-trapping activity test (DMB derivatisation, HPLC); settings: 0.02 mM methyl glyoxal, 0.2 mM test compound, PBS, 37° C., 30 minutes
Method: (§1) In 0.2 mL of PBS were incubated 0.02 mM of methyl glyoxal and 0.2 mM of test compound at 37° C. for 30 minutes. Subsequently, a volume of 5 mM DMB (1,2-diamino-4,5-methylenedioxy benzene) solution equivalent to 10 μL of the incubation sample was added, followed by further incubation at 4° C. for 7 hours to react the remaining methyl glyoxal with DMB. After the end of reaction, a 0.4 M phosphate buffer solution (pH 7.2) was added for neutralization, followed by quantitating the modified product of methyl glyoxal-DMB using HPLC.
(§2) HPLC having a YMC-Pack Pro C18 column (φ4.6 mm×150 mm) and employing 5 mM sodium phosphate buffer (pH 7.4)-25% acetonitrile as a mobile phase was used at a flow rate of 0.7 mL/min to determine fluorescence strength at Ex352 nm and Em385 nm.
The proportion of methyl glyoxal trapped by the test compound was calculated as % trapping activity, based on the quantitative value of the total modified product of methyl glyoxal-DMB in the absence of the test compound.

[3] = Glyoxal-trapping activity test (DMB derivatisation, HPLC); settings: 0.02 mM glyoxal, 0.2 mM test compound, PBS, 37° C., 30 minutes
Method: as §1, with “of” for “of methyl”
as §2
The proportion of glyoxal trapped by the test compound was calculated as % trapping activity, based on the quantitative value of the total modified product of glyoxal-DMB in the absence of the test compound.

[4] = test compound concentration 0.1 mM
[5] = test compound concentration 0.3 mM
[6] = test compound concentration 1 mM
[7] = test compound concentration 3 mM

In the case of `NC(N)=NCCC[C@H](N)C(=O)NO` [Compound No. 111, arginine hydroxamate], the “Maillard reaction-inhibiting activity (%)” value [1, 4] is reported as 10%, the “Maillard reaction-inhibiting activity (%)” value [1, 5] is reported as 17% and the “Maillard reaction-inhibiting activity (%)” value [1, 6] is reported as 75%. For the same molecule, the “Maillard reaction-inhibiting activity (%)” value [1, 7] was 98%, the “Methyl-glyoxal-trapping activity (% trapping)” value [2] was 77.6 ± 0.5 % trapping and the “Glyoxal-trapping activity (% trapping)” value [3] was 75.2 ± 1.3 % trapping.

With `N#Cc1ccc(Cn2cc(CC(N)C(=O)NO)c3ccccc32)cc1` (racemic) [Compound No. 107, (RS)-2-amino-3-[1-(4-cyanobenzyl)-1H-indol-3-yl]-N-hydroxypropionamide] the “Maillard reaction-inhibiting activity (%)” value [1, 4] was 101%, the “Maillard reaction-inhibiting activity (%)” value [1, 5] was 100% and the “Maillard reaction-inhibiting activity (%)” value [1, 6] was 101%. The “Maillard reaction-inhibiting activity (%)” value [1, 7] was 101%, the “Methyl-glyoxal-trapping activity (% trapping)” value [2] was 87.3 ± 0.5 % trapping and the “Glyoxal-trapping activity (% trapping)” value [3] was 69.8 ± 1.2 % trapping.

In the case of `CC(C)(C)C(=O)Nc1ccc(C[C@H](N)C(=O)NO)cc1` [Compound No. 32, (S)-2-amino-3-(4-pivaloylaminophenyl)-N-hydroxypropionamide], the “Maillard reaction-inhibiting activity (%)” value [1, 4] is reported as 23%, the “Maillard reaction-inhibiting activity (%)” value [1, 5] is reported as 50% and the “Maillard reaction-inhibiting activity (%)” value [1, 6] is reported as 89%. The “Maillard reaction-inhibiting activity (%)” value [1, 7] was 102%.

In the case of `NC(Cc1cn(Cc2ccc(F)c(F)c2)c2ccccc12)C(=O)NO` (racemic) [Compound No. 108, (RS)-2-amino-3-[1-(3,4-difluorobenzyl)-1H-indol-3-yl]-N-hydroxypropionamide], the “Maillard reaction-inhibiting activity (%)” value [1, 4] is reported as 102%, the “Maillard reaction-inhibiting activity (%)” value [1, 5] is reported as 103% and the “Maillard reaction-inhibiting activity (%)” value [1, 6] is reported as 104%. For the same molecule, the “Maillard reaction-inhibiting activity (%)” value [1, 7] was 104%.

In the case of `CCCCCn1cc(C[C@H](N)C(=O)NO)c2ccccc21` [Compound No. 109, (S)-2-amino-3-(1-pentyl-1H-indol-3-yl)-N-hydroxypropionamide], the “Maillard reaction-inhibiting activity (%)” value [1, 4] is reported as 104%, the “Maillard reaction-inhibiting activity (%)” value [1, 5] is reported as 105% and the “Maillard reaction-inhibiting activity (%)” value [1, 6] is reported as 104%. The “Maillard reaction-inhibiting activity (%)” value [1, 7] was 103%.

In the case of `CCCn1c(CC[C@H](N)C(=O)NO)nc2cc(C)c(C)cc21` [Compound No. 94, (S)-2-amino-4-(5,6-dimethyl-1-propyl-1H-benzimidazol-2-yl)-N-hydroxybutyramide], the “Maillard reaction-inhibiting activity (%)” value [1, 4] is reported as 12%, the “Maillard reaction-inhibiting activity (%)” value [1, 5] is reported as 83% and the “Maillard reaction-inhibiting activity (%)” value [1, 6] is reported as 100%. The “Maillard reaction-inhibiting activity (%)” value [1, 7] was 102%.

In the case of `COC(=O)Nc1ccc(C[C@H](N)C(=O)NO)cc1` [Compound No. 36, (S)-2-amino-3-(4-methoxycarbonylaminophenyl)-N-hydroxypropionamide], the “Maillard reaction-inhibiting activity (%)” value [1, 4] is reported as 15%, the “Maillard reaction-inhibiting activity (%)” value [1, 5] is reported as 33% and the “Maillard reaction-inhibiting activity (%)” value [1, 6] is reported as 69%. For the same molecule, the “Maillard reaction-inhibiting activity (%)” value [1, 7] was 102%.

With `Cc1cc2nc(CC[C@H](N)C(=O)NO)n(Cc3ccc(C(C)(C)C)cc3)c2cc1C` [Compound No. 85, (S)-2-amino-4-[1-(4-t-butylbenzyl)-5,6-dimethyl-1H-benzimidazol-2-yl]-N-hydroxybutyramide] the “Maillard reaction-inhibiting activity (%)” value [1, 4] was 99%, the “Maillard reaction-inhibiting activity (%)” value [1, 5] was 100% and the “Maillard reaction-inhibiting activity (%)” value [1, 6] was 98%. For the same molecule, the “Maillard reaction-inhibiting activity (%)” value [1, 7] was 98%.

With `CCCCC(=O)Nc1ccc(C[C@H](N)C(=O)NO)cc1` [Compound No. 31, (S)-2-amino-3-(4-valeroylaminophenyl)-N-hydroxypropionamide] the “Maillard reaction-inhibiting activity (%)” value [1, 4] was 29%, the “Maillard reaction-inhibiting activity (%)” value [1, 5] was 72% and the “Maillard reaction-inhibiting activity (%)” value [1, 6] was 100%. For the same molecule, the “Maillard reaction-inhibiting activity (%)” value [1, 7] was 100%.

With `Cc1ccc(S(=O)(=O)Nc2ccc(C[C@H](N)C(=O)NO)cc2)cc1` [Compound No. 34, (S)-2-amino-3-[4-(toluen-4-ylsulfonylamino)phenyl]-N-hydroxypropionamide] the “Maillard reaction-inhibiting activity (%)” value [1, 4] was 37%, the “Maillard reaction-inhibiting activity (%)” value [1, 5] was 98% and the “Maillard reaction-inhibiting activity (%)” value [1, 6] was 102%. The “Maillard reaction-inhibiting activity (%)” value [1, 7] was 102%.

For `CC(C)(C)c1ccc(Cn2c(CC[C@H](N)C(=O)NO)nc3ccccc32)cc1` [Compound No. 74, (S)-2-amino-N-hydroxy-4-[1-(4-t-butylbenzyl)-1H-benzimidazol-2-yl]butyramide], the “Maillard reaction-inhibiting activity (%)” value [1, 4] was 98%, the “Maillard reaction-inhibiting activity (%)” value [1, 5] was 99% and the “Maillard reaction-inhibiting activity (%)” value [1, 6] was 101%. The “Maillard reaction-inhibiting activity (%)” value [1, 7] was 100%.

For `N[C@@H](CCC(=O)NC1CCCCC1)C(=O)NO` [Compound No. 5, (S)-2-amino-4-(cyclohexylaminocarbonyl)-N-hydroxybutyramide], the “Maillard reaction-inhibiting activity (%)” value [1, 4] was −3%, the “Maillard reaction-inhibiting activity (%)” value [1, 5] was 5% and the “Maillard reaction-inhibiting activity (%)” value [1, 6] was 35%. The “Maillard reaction-inhibiting activity (%)” value [1, 7] was 97%.

With `N[C@@H](CCCNC1CCCCC1)C(=O)NO` [Compound No. 27, (S)-2-amino-5-cyclohexylaminopentanoic acid hydroxyamide] the “Maillard reaction-inhibiting activity (%)” value [1, 4] was 1%, the “Maillard reaction-inhibiting activity (%)” value [1, 5] was 7% and the “Maillard reaction-inhibiting activity (%)” value [1, 6] was 32%. The “Maillard reaction-inhibiting activity (%)” value [1, 7] was 100%.

For `N[C@@H](Cc1ccc(NC(=O)Cc2ccc(F)cc2)cc1)C(=O)NO` [Compound No. 33, (S)-2-amino-3-{4-[2-(4-fluorophenyl)acetylamino]-phenyl}-N-hydroxypropionamide], the “Maillard reaction-inhibiting activity (%)” value [1, 4] was 57%, the “Maillard reaction-inhibiting activity (%)” value [1, 5] was 93% and the “Maillard reaction-inhibiting activity (%)” value [1, 6] was 98%. The “Maillard reaction-inhibiting activity (%)” value [1, 7] was 102%.

With `N[C@@H](CCc1nc2ccccc2n1Cc1ccc(F)cc1)C(=O)NO` [Compound No. 73, (S)-2-amino-N-hydroxy-4-[1-(4-fluorobenzyl)-1H-benzimidazol-2-yl]butyramide] the “Maillard reaction-inhibiting activity (%)” value [1, 4] was 94%, the “Maillard reaction-inhibiting activity (%)” value [1, 5] was 98% and the “Maillard reaction-inhibiting activity (%)” value [1, 6] was 98%. For the same molecule, the “Maillard reaction-inhibiting activity (%)” value [1, 7] was 100%.

In the case of `CCCN(CCC)c1ccc(C[C@H](N)C(=O)NO)cc1` [Compound No. 38, (S)-2-amino-3-(4-dipropylamino-1-phenyl)-N-hydroxypropionamide], the “Maillard reaction-inhibiting activity (%)” value [1, 4] is reported as 100%, the “Maillard reaction-inhibiting activity (%)” value [1, 5] is reported as 100% and the “Maillard reaction-inhibiting activity (%)” value [1, 6] is reported as 100%. The “Maillard reaction-inhibiting activity (%)” value [1, 7] was 100%.

In the case of `N[C@@H](Cc1ccc(OCc2ccc([N+](=O)[O-])cc2)cc1)C(=O)NO` [Compound No. 101, (S)-2-amino-3-[4-(4-nitrobenzyloxy)phenyl]-N-hydroxypropionamide], the “Maillard reaction-inhibiting activity (%)” value [1, 4] is reported as 102%, the “Maillard reaction-inhibiting activity (%)” value [1, 5] is reported as 102% and the “Maillard reaction-inhibiting activity (%)” value [1, 6] is reported as 102%. The “Maillard reaction-inhibiting activity (%)” value [1, 7] was 98%.

With `N[C@@H](Cc1ccc([N+](=O)[O-])cc1)C(=O)NO` [Compound No. 40, (S)-2-amino-3-(4-nitrophenyl)-N-hydroxypropionamide] the “Maillard reaction-inhibiting activity (%)” value [1, 4] was 37%, the “Maillard reaction-inhibiting activity (%)” value [1, 5] was 49% and the “Maillard reaction-inhibiting activity (%)” value [1, 6] was 96%. For the same molecule, the “Maillard reaction-inhibiting activity (%)” value [1, 7] was 100%.

In the case of `CCCN(CCC)CCC[C@H](N)C(=O)NO` [Compound No. 25, (S)-2-amino-5-dipropylaminopentanoic acid hydroxyamide], the “Maillard reaction-inhibiting activity (%)” value [1, 4] is reported as 7%, the “Maillard reaction-inhibiting activity (%)” value [1, 5] is reported as 6% and the “Maillard reaction-inhibiting activity (%)” value [1, 6] is reported as 40%. The “Maillard reaction-inhibiting activity (%)” value [1, 7] was 100%.

For `CC(C)(C)Cn1c(CC[C@H](N)C(=O)NO)nc2ccccc21` [Compound No. 71, (S)-2-amino-N-hydroxy-4-[1-(2,2-dimethylpropyl)-1H-benzimidazol-2-yl]butyramide], the “Maillard reaction-inhibiting activity (%)” value [1, 4] was 71%, the “Maillard reaction-inhibiting activity (%)” value [1, 5] was 97% and the “Maillard reaction-inhibiting activity (%)” value [1, 6] was 98%. For the same molecule, the “Maillard reaction-inhibiting activity (%)” value [1, 7] was 99%.

In the case of `N[C@@H](CCC(=O)NCC(c1ccccc1)c1ccccc1)C(=O)NO` [Compound No. 6, (S)-2-amino-4-(2,2-diphenylethylaminocarbonyl)-N-hydroxybutyramide], the “Maillard reaction-inhibiting activity (%)” value [1, 4] is reported as 49%, the “Maillard reaction-inhibiting activity (%)” value [1, 5] is reported as 97% and the “Maillard reaction-inhibiting activity (%)” value [1, 6] is reported as 103%. For the same molecule, the “Maillard reaction-inhibiting activity (%)” value [1, 7] was 100%.
